Experimental data from patent EP4603105A1, “PHARMACEUTICAL COMPOSITION CONTAINING CYCLIC COMPOUND HAVING SELECTIVE KRAS INHIBITORY EFFECT AGAINST HRAS AND NRAS” (CHUGAI SEIYAKU KABUSHIKI KAISHA, priority 2022, dated 2024).
Where two headings read alike, the source gives them in different places.

Tests used:
HRAS wild-type protein = HRAS wild-type protein (Homo sapiens, UniProt P01112); test: Binding to HRAS by surface plasmon resonance (SPR), KD and KD ratio to KRAS
How it was run: (§1)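 Measured at 30°C: SPR with GDP-loaded, E. coli-expressed biotin-Avi RAS captured (~100–300 RU), ascending 75 s compound injections, HBS pH 7.4 with GDP, MgCl2, 4% DMSO. KD from 1:1 fit.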

[1] = tested on: human lung cancer strain NCI-H441; test: NCI-H441 cell proliferation inhibitory activity (CellTiter-Glo, 4 days); type: cell-based; settings: read-out: NCl-H441 IC50
How it was run: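 Signal came from […] measured per well once the reagent was added. Beforehand, cells were cultured at 37°C and 5% carbon dioxide on a compound series serially diluted in dimethyl sulfoxide.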

[2] = biological target: GDP-bound KRAS wild-type protein (Homo sapiens, UniProt P01116); test: Binding to KRAS by surface plasmon resonance (SPR), dissociation constant KD
Sequence of GDP-bound KRAS wild-type protein (P01116 1-188 isoform P01116-2): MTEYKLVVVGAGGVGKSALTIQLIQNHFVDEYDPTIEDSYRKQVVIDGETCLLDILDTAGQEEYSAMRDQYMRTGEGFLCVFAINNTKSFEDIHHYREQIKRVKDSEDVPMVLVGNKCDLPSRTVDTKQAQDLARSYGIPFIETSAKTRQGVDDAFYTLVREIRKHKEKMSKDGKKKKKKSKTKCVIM
How it was run: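 Running buffer contained 10 µM GDP and 10 mM MgCl2 to keep RAS in the GDP state, with 4% DMSO at pH 7.4. Compounds were flowed at 100 µL/min in 75 s steps of rising concentration over captured biotin-Avi RAS at 30°C. Sensorgrams were fitted 1:1 for KD.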

[3] = biological target: GDP-bound NRAS wild-type protein (Homo sapiens, UniProt P01111); test: Binding to NRAS by surface plasmon resonance (SPR), KD and KD ratio to KRAS
Sequence of GDP-bound NRAS wild-type protein (P01111 whole entry): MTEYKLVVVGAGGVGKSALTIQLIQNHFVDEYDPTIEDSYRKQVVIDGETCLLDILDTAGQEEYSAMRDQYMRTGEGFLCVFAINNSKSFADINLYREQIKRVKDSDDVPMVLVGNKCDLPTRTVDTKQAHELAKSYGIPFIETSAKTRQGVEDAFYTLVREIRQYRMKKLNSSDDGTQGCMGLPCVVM
How it was run: as §1

[4] = ratio of KD for HRAS wild-type protein to KD for KRAS
[5] = ratio of KD for GDP-bound NRAS wild-type protein to KD for KRAS

Sequence of HRAS wild-type protein (P01112 whole entry): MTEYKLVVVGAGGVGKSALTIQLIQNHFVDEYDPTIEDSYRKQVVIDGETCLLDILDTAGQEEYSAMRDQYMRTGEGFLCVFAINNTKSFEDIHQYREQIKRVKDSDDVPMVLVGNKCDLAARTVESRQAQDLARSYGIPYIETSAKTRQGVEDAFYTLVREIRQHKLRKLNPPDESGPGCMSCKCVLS

Row | IC50 ([1]; NCI-H441 cells, 4 days) [nM] | Kd ([2]; Single Cycle Kinetics) [nM] | Kd ([2]; 1:1 binding model) [nM] | IC50 ([1]; 50% proliferation inhibitory concentration, four days) [nM] | Kd ([2]; Single Cycle Kinetics, 1:1 binding model) [nM] | Compound | HRAS /KRAS (HRAS wild-type protein; [4]) | NRAS /KRAS [3, 5] | HRAS /KRAS (HRAS wild-type protein; ratio of KD with respect to HRAS wild-type protein to KD with respect to KRAS) | NRAS /KRAS ([3]; ratio of KD with respect to GDP-bound NRAS wild-type protein to KD with respect to KRAS)
1 | 22.4 | 0.5 |  |  |  | CCCOC[C@H]1C(=O)N[C@@H]([C@@H](C)CC)C(=O)N(CCC)CC(=O)N(C)[C@H]2C/C=C\CCN(C2=O)[C@@H](Cc2ccc(C(F)F)cc2)C(=O)N(C)CC(=O)N[C@@H](CCc2cc(F)c(C(F)(F)F)c(F)c2)C(=O)N2C[C@H](OC3CCC3)C[C@H]2C(=O)N(C)C2(CCC2)C(=O)N(C)[C@@H](C(CC)CC)C(=O)N(C)[C@H](C(=O)N(C)C)CC(=O)N1C [PP3502] | A (a compound having 10 or more and less than 20 is denoted as A) | AA (a compound having 20 or more is denoted as AA) |  | 
2 | 6.2 | 0.083 |  |  |  | CCC[C@H]1C(=O)N[C@@H](C2CCCC2)C(=O)N(C)CC(=O)N(C)[C@H]2C/C=C\CCN(C2=O)[C@@H](Cc2ccc(C(F)F)cc2)C(=O)N(C)CC(=O)N[C@@H](CCc2cc(F)c(C(F)(F)F)c(OC)c2)C(=O)N2C[C@H](OC(C)C)C[C@H]2C(=O)N(C)C2(CCC2)C(=O)N(C)[C@@H](C(CC)CC)C(=O)N(C)[C@H](C(=O)N(C)C)CC(=O)N1C [PP3499] | B (a compound having 3 or more and less than 10 is denoted as B) | A (a compound having 10 or more and less than 20 is denoted as A) |  | 
3 | 2.3 |  | 0.076 |  |  | CCC[C@H]1C(=O)N[C@@H]([C@@H](C)CC)C(=O)N(C)CC(=O)N(C)[C@H]2C/C=C\CCN(C2=O)[C@@H](Cc2ccc(C)cc2)C(=O)N(C)CC(=O)N[C@@H](CCc2cc(F)c(C(F)(F)F)c(F)c2)C(=O)N2C[C@H](OCC)C[C@H]2C(=O)NC2(CC(C)(C)C2)C(=O)N(C)[C@@H](CC(C)(C)C)C(=O)N(C)[C@H](C(=O)N(C)C)CC(=O)N1C [PP2706] | B (a compound having 3 or more and less than 10 is denoted as B) | A (a compound having 10 or more and less than 20 is denoted as A) |  | 
4 | 48 |  | 0.31 |  |  | CCCO[C@H](C)[C@@H]1NC(=O)[C@H](COCC)N(C)C(=O)C[C@@H](C(=O)N(C)CC)N(C)C(=O)[C@H](C2CCCC2)N(C)C(=O)C2(CC(C)(C)C2)NC(=O)[C@@H]2C[C@H](C)CN2C(=O)[C@H](CCc2cc(F)c(C(F)(F)F)c(F)c2)NC(=O)CN(C)C(=O)[C@H](Cc2ccc(C)cc2)N2CC/C=C\C[C@@H](C2=O)N(C)C(=O)CN(C)C1=O [PP2426] | A (a compound having 10 or more and less than 20 is denoted as A) | AA (a compound having 20 or more is denoted as AA) |  | 

More lines, now with the values behind:

Row | Compound | IC50 ([1]; NCI-H441 cells, 4 days) [nM] | Kd ([2]; Single Cycle Kinetics) [nM] | Kd ([2]; 1:1 binding model) [nM] | IC50 ([1]; 50% proliferation inhibitory concentration, four days) [nM] | Kd ([2]; Single Cycle Kinetics, 1:1 binding model) [nM] | HRAS /KRAS (HRAS wild-type protein; [4]) | NRAS /KRAS [3, 5] | HRAS /KRAS (HRAS wild-type protein; ratio of KD with respect to HRAS wild-type protein to KD with respect to KRAS) | NRAS /KRAS ([3]; ratio of KD with respect to GDP-bound NRAS wild-type protein to KD with respect to KRAS)
5 | CCC[C@H]1C(=O)N[C@@H]([C@@H](C)CC)C(=O)N(C)CC(=O)N(C)[C@H]2C/C=C\CCN(C2=O)[C@@H](Cc2ccc(C)cc2)C(=O)N(C)CC(=O)N[C@@H](CCc2ccc(C(F)(F)F)c(OC)c2)C(=O)N2CC[C@H](OC)[C@H]2C(=O)N(C)C2(CCC2)C(=O)N(C)[C@@H](C2CCCC2)C(=O)N(C)[C@H](C(=O)N(C)C)CC(=O)N1C [PP3249] | 4.2 | 0.059 |  |  |  | B (a compound having 3 or more and less than 10 is denoted as B) | A (a compound having 10 or more and less than 20 is denoted as A) |  | 
6 | CCO[C@@H]1C[C@H]2C(=O)NC3(CCCC3)C(=O)N(C)[C@@H](C3CCCC3)C(=O)N(C)[C@H](C(=O)N3CCOCC3)CC(=O)N(C)[C@@H](CC)C(=O)N[C@@H]([C@@H](C)CC)C(=O)N(C)CC(=O)N(C)[C@H]3C[C@@H](C)[C@@H](C)CN(C3=O)[C@@H](Cc3ccc(C(F)(F)F)cc3)C(=O)N(C)CC(=O)N[C@@H](CCc3cc(F)c(C(F)(F)F)c(F)c3)C(=O)N2C1 [PP1353] |  |  |  | 3.7 | 0.1 |  |  | B (a compound having 3 or more and less than 10 is denoted as B) | A (a compound having 10 or more and less than 20 is denoted as A)
